Source: a melting point compilation (Tetko et al.)

melting point | Structure (SMILES)
76 to 78 °C | O=C(CCl)Nc1ccc(F)cc1Cl
111 to 113 °C | CCOc1cc(C=O)ccc1OCc1c(F)cccc1Cl
145 to 147 °C | NS(=O)(=O)c1cc([N+](=O)[O-])c(Br)s1
74 to 76 °C | CC(=O)c1c(C)cc(C)c(CCl)c1C
171 to 173 °C | NC(=S)c1cc([N+](=O)[O-])ccc1N
146 to 148 °C | Nc1ccc(N2CCCCC2)c(S(=O)(=O)Nc2ccccc2Cl)c1
201 to 203 °C | CC1=NN(c2cccc(Br)c2)C(=O)C1CC(=O)O (stereo not given)
84 to 86 °C | CC(C)(C)OC(=O)Nc1csc(Br)c1
91 to 93 °C | Fc1cc(Br)cc2c(Cl)cc(C(F)(F)F)nc12
72 to 74 °C | NC1CCN(C(=O)C2CCCCC2)C1 (stereo not given)
205 to 207 °C | O=C1CCc2cc(S(=O)(=O)Cl)ccc2N1
39 to 42 °C | C=CS(=O)(=O)Oc1ccccc1
61 to 64 °C | Nc1ccccc1Oc1ccccc1N
116 to 118 °C | O=C(Cn1cccn1)NC1CCCCC1
231 to 233 °C | Cc1ccc(S(=O)(=O)Nc2ccccc2C(=O)O)cc1
220 to 222 °C | O=C(O)Cc1cc2c(cc1Br)OCCO2
170 to 172 °C | N#CCNC(=O)c1ccc(Br)cc1
131 to 133 °C | O=C(O)c1cn(Cc2ccccc2)nc1-c1cccs1
109 to 111 °C | CCOC(=O)c1cnn(CCC#N)c1N
252 to 254 °C | O=C(O)c1cc2c(F)cc(F)cc2[nH]1
89 to 91 °C | Cc1nn(-c2ccccc2)c(Cl)c1CO
192 to 194 °C | CCCCc1nc2cc(NC(C)=O)ccc2[nH]1
249 to 251 °C | Cc1oncc1C(=O)Nc1ccc(O)c(C(=O)O)c1
308 to 310 °C | O=C(O)c1ccc(-n2nnc3ccccc32)cc1

melting point | Structure (SMILES)
80 to 82 °C | CCOC(=O)Nc1snc(C)c1C(C)=O
84 to 86 °C | Cc1ccccc1C(=O)CC#N
105 to 107 °C | COC(=O)CNc1ccc(Br)cn1
66 to 68 °C | Nc1nc(C(F)(F)F)cs1
179 to 181 °C | Cc1ccc(O)c(C(=O)NO)c1
49 to 51 °C | O=c1c(Cl)c(Cl)c1=O
121 to 123 °C | Nc1ccc(N2CCOCC2)c(F)c1
124 to 126 °C | O=S1(=O)CCC(I)CC1
69 to 71 °C | Cc1cc([N+](=O)[O-])ccc1S(=O)(=O)Cl
114 to 116 °C | CC(C)(C)C(=O)COc1ccc([N+](=O)[O-])cc1Cl
256 to 258 °C | NC(=S)Cn1ccc(=O)[nH]c1=O
275 to 277 °C | COC(=O)c1ccc2c(c1)S(=O)(=O)N=C(C)N2
154 to 156 °C | O=C(Nc1cccc(O)c1)c1cccs1
186 to 188 °C | Cc1nnc(S)n1N
150 to 152 °C | O=C(CC1(C(=O)O)CCCC1)N1CCOCC1
273 to 275 °C | O=C(O)CNS(=O)(=O)c1c[nH]c2ncccc12
149 to 151 °C | CNC(=O)Cn1cnc(N)n1
121 to 123 °C | Cn1cc(S(N)(=O)=O)cn1
212 to 216 °C | CN(C)S(=O)(=O)c1ccc(=O)[nH]c1
149 to 151 °C | COc1ccc(Oc2ncccc2N)cc1
128 to 130 °C | CNS(=O)(=O)c1ccc(C#N)cc1
60 to 62 °C | CC(C)(C)OC(=O)N1CCCc2cccc(O)c21
247 to 249 °C | N#Cc1ccc(Nc2cccc(C(=O)O)c2)cc1
174 to 176 °C | Ic1n[nH]c2ccsc12

melting point | Structure (SMILES)
93 to 95 °C | CC(c1ccc(F)cc1F)S(N)(=O)=O (stereo not given)
123 to 125 °C | Cc1cc(OCC(=O)O)no1
171 to 173 °C | CC(C)(C)c1ccc(Oc2ccc(C(=O)O)cc2F)cc1
169 to 171 °C | CNS(=O)(=O)c1cc(N)ccc1OC
131 to 133 °C | CC(C)(C)OC(=O)Nc1ccc(F)cc1N
146 to 148 °C | N#CCC(=O)NN1CCCCC1=O
171 to 173 °C | NC(CSCc1cccc2cccnc12)C(=O)O (stereo not given)
69 to 71 °C | NC1CCCOc2ccccc21 (stereo not given)
136 to 138 °C | Cc1ccc(-c2nnco2)cc1N
30 to 32 °C | CCn1nc(C)c(C(C)=O)c1C
185 to 187 °C | O=C(CCl)Nc1cc(-n2cnnn2)ccc1F
133 to 135 °C | O=C(CCl)Nc1cccc(S(=O)(=O)N=C2CCCCCN2)c1
239 to 241 °C | NNC(=O)c1n[nH]c(=O)c2ccccc12
208 to 210 °C | O=C(O)CC(O)(c1ncc[nH]1)C(F)(F)F (stereo not given)
138 to 140 °C | O=C(O)c1cn(-c2ccccc2)nn1
104 to 106 °C | Nc1ccccc1Oc1ncc(Cl)cc1Cl
108 to 110 °C | CC(=O)CC(=O)Nc1ccc(C)c(Cl)c1
99 to 101 °C | CC(C)(C)C(=O)NC1CCCNC1 (stereo not given)
98 to 100 °C | CCOC(=O)c1cnn(-c2ccc(C(F)(F)F)cn2)c1C(F)(F)F
72 to 74 °C | Cc1ccc(-c2csc(CN)n2)cc1
213 to 215 °C | O=C(Nc1ccccc1)c1ccc(Cl)nn1
71 to 73 °C | O=[N+]([O-])c1cc(S(=O)(=O)C(F)F)ccc1Cl
83 to 85 °C | CCC1(C(=O)O)CCOCC1
183 to 185 °C | O=C(O)c1coc(C#Cc2ccccc2)c1

melting point | Structure (SMILES)
80 to 82 °C | N#CCc1cccnc1Cl
157 to 159 °C | Sc1nnnn1-c1ccc2c(c1)OCO2
64 to 66 °C | O=C1NC2CCCCCCC12 (stereo not given)
218 to 220 °C | CN(C)S(=O)(=O)c1ccc2oc(NN)nc2c1
215 to 217 °C | O=C(O)c1ccc(Oc2ccc(Cl)cn2)cc1
199 to 201 °C | Cc1cccn2cc(COc3ccccc3C(=O)O)nc12
91 to 93 °C | O=C(O)CNC(=O)c1ccc(Br)o1
239 to 241 °C | COc1cccc2c1OCC(C(=O)O)=C2
229 to 231 °C | COC(=O)c1[nH]c(=O)[nH]c1C
166 to 168 °C | COc1ccccc1C1(C)CC1C(=O)O (stereo not given)
115 to 117 °C | CCn1nc(C(C)C)cc1C(=O)O
83 to 85 °C | O=C(O)CN1C(=O)C2CC=CCC2C1=O (stereo not given)
199 to 201 °C | Cc1ccc(C(N)CC(=O)O)o1 (stereo not given)
111 to 115 °C | Cn1c(S)nnc1-c1ccc(F)cc1
170 to 172 °C | Sc1nnc(NC2CC2)s1
206 to 208 °C | O=C1c2ccccc2C(=O)N1CC(O)CN1C(=O)c2ccccc2C1=O
152 to 154 °C | Nc1n[nH]c2ccccc12
158 to 160 °C | CC(C)c1c(C(=O)O)nnn1-c1ccc(F)cc1F
179 to 181 °C | CC(=O)Nc1cccc(NC(=O)C(Br)C(C)C)c1 (stereo not given)
183 to 185 °C | NC(=S)c1ccn[nH]1
37 to 39 °C | CCC(=O)Cc1ccc(Cl)cc1Cl
284 to 286 °C | NC(=O)c1ccc(N2CCC(C(=O)O)CC2)nc1
127 to 129 °C | Clc1nc(Cl)c2cn[nH]c2n1
109 to 111 °C | Cc1csc(C2(O)C(=O)N(Cc3ccccc3)CC2C(=O)O)n1 (stereo not given)

melting point | Structure (SMILES)
114 to 116 °C | Cn1ncnc1COc1ccc(S(=O)(=O)Cl)cc1
179 to 181 °C | Nc1nnc(Cl)s1
259 to 261 °C | COc1ccc(-c2nnn(CC(=O)O)n2)cc1OC
225 to 227 °C | CSc1ccc(C(=O)O)cc1[N+](=O)[O-]
164 to 166 °C | O=C1C=CC=NC1=C(O)Nc1ccncc1
179 to 181 °C | Cc1ccc(S(=O)(=O)NC(CC(N)=O)C(=O)O)cc1C (stereo not given)
180 to 182 °C | COC(=O)c1ccc(C)c(NCc2[nH]cnc2C)c1
229 to 231 °C | O=C(O)c1cc(Br)cc2ccccc12
112 to 114 °C | Cc1ccc(-c2nn(-c3ccccc3)cc2C=O)o1
179 to 181 °C | NC(=S)N1CCN(c2nccs2)CC1
79 to 81 °C | CC(C)(C)OC(=O)N1CCN(CC#N)CC1
145 to 147 °C | Cc1nc2ccccc2n1N
39 to 41 °C | O=C(CC(F)(F)F)c1ccc(Cl)cc1
129 to 131 °C | CCCNC(=O)C1CNc2ccccc2O1 (stereo not given)
102 to 104 °C | O=C(O)CCCN1C(=O)CCC1=O
200 to 202 °C | Nc1cccc(-c2nnc3n2CCCCC3)c1
138 to 140 °C | Sc1nnc(C2CC2)n1C1CC1
71 to 73 °C | Cc1ccc(C(=O)NCCN)cc1F
51 to 55 °C | COC(=O)Cc1c(C)n[nH]c1C
156 to 158 °C | CNS(=O)(=O)c1cc(OC)c(OC)cc1Br
138 to 140 °C | O=C(O)c1ccc(F)c(S(=O)(=O)Cl)c1
88 to 90 °C | NCCNS(=O)(=O)Cc1ccccc1
192 to 194 °C | O=C(O)Cn1ccc2cc([N+](=O)[O-])ccc21
329 to 331 °C | Cc1nc(O)ccc1C(=O)O

melting point | Structure (SMILES)
129 to 131 °C | CC(C)(C)Sc1ccc(C(N)=S)nc1
202 to 204 °C | Nc1nc(-c2ccccc2)cn1/N=C/c1ccccc1
176 to 178 °C | O=C(O)C1(c2ccc3c(c2)OCO3)CCCCC1
109 to 111 °C | O=C(O)c1ccccc1C(=O)N1CCCCC1
129 to 131 °C | COC(=O)c1n[nH]c(C)c1Cl
139 to 141 °C | Cc1nc(CC(N)=NO)cs1
99 to 101 °C | CCN(CC)S(=O)(=O)c1ccc(Cl)c(S(=O)(=O)Cl)c1
215 to 217 °C | O=C(O)c1cc(Cl)nc(N2CCCC2)c1
232 to 234 °C | O=C(O)c1nn(-c2ccccc2Cl)c2c1CCCC2
201 to 203 °C | CCOC(=O)c1cnn(-c2ccc(C(=O)O)cc2)c1C
107 to 109 °C | ClCc1nnc(-c2cc3c(s2)CCCC3)o1
39 to 41 °C | O=C1C=CC(=O)N1CCCN1CCOCC1
99 to 101 °C | CCOC(=O)c1c(N)c(C#N)cn1CCOC
230 to 232 °C | O=C(O)c1n[nH]c(=O)c2ccccc12
79 to 81 °C | N#Cc1cccnc1NCCO
123 to 125 °C | O=C(Nc1ccccc1)c1cccc(CCl)c1
209 to 211 °C | O=C(CCC1CCCCC1)Nc1ccc(C(=O)O)c(O)c1
171 to 173 °C | Cc1sc(=O)[nH]c1-c1ccccc1
55 to 57 °C | CCc1cc2c(Cl)ncnc2s1
170 to 172 °C | N#Cc1nccnc1Oc1ccc(N)cc1
126 to 128 °C | COC(=O)c1cc2c(nc1N)CCCC2

Structure (SMILES) | melting point
CC(C)(C)c1ccc(C=C[N+](=O)[O-])cc1 | 44 to 46 °C
O=C(CCl)NNC(=O)C1CCC1 | 199 to 201 °C
Cc1nc(NC(=O)CCl)sc1C | 144 to 146 °C
CNC(=O)c1cccc(CCl)c1 | 61 to 63 °C
